Test results from PubChem BioAssay (NCI).
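How tested: cells in 96-well plates exposed to compound for 48 hours at five concentrations. Definition used: TGI = concentration required for complete inhibition of growth.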

Experiments:
Assay in all cases: inhibition of tumour cell growth, NCI panel, 48 h
DMS 114 small cell lung = tested on: DMS 114 small cell lung
MOLT-4 leukemia = tested on: MOLT-4 leukemia
RPMI-8226 leukemia = tested on: RPMI-8226 leukemia
RXF-631 renal = tested on: RXF-631 renal
U251 CNS = tested on: U251 CNS
SK-OV-3 ovarian = tested on: SK-OV-3 ovarian
LOX IMVI melanoma = tested on: LOX IMVI melanoma
EKVX NSCLC = tested on: EKVX NSCLC
NCI-H23 lung = tested on: NCI-H23 lung
HT29 colon = tested on: HT29 colon
NCI-H522 lung = tested on: NCI-H522 lung
HCC-2998 colon = tested on: HCC-2998 colon
A498 renal = tested on: A498 renal
MALME-3M melanoma = tested on: MALME-3M melanoma
NCI-H226 lung = tested on: NCI-H226 lung
SF-295 CNS = tested on: SF-295 CNS
SK-MEL-2 melanoma = tested on: SK-MEL-2 melanoma
SNB-78 CNS = tested on: SNB-78 CNS
KM20L2 colon = tested on: KM20L2 colon
LXFL 529 NSCLC = tested on: LXFL 529 NSCLC
SK-MEL-5 melanoma = tested on: SK-MEL-5 melanoma
OVCAR-4 ovarian = tested on: OVCAR-4 ovarian
NCI-H460 lung = tested on: NCI-H460 lung
M14 melanoma = tested on: M14 melanoma
IGROV1 ovarian = tested on: IGROV1 ovarian
K-562 leukemia = tested on: K-562 leukemia
OVCAR-3 ovarian = tested on: OVCAR-3 ovarian
KM12 colon = tested on: KM12 colon
HOP-62 NSCLC = tested on: HOP-62 NSCLC
HCT-15 colon = tested on: HCT-15 colon
UO-31 renal = tested on: UO-31 renal
HL-60(TB) leukemia = tested on: HL-60(TB) leukemia
CCRF-CEM leukemia = tested on: CCRF-CEM leukemia
SNB-75 CNS = tested on: SNB-75 CNS
SW-620 colon = tested on: SW-620 colon
UACC-62 melanoma = tested on: UACC-62 melanoma
786-0 renal = tested on: 786-0 renal
SNB-19 CNS = tested on: SNB-19 CNS
HOP-92 NSCLC = tested on: HOP-92 NSCLC
DMS 273 small cell lung = tested on: DMS 273 small cell lung
UACC-257 melanoma = tested on: UACC-257 melanoma
HCT-116 colon = tested on: HCT-116 colon
SF-539 CNS = tested on: SF-539 CNS
XF 498 CNS = tested on: XF 498 CNS
M19-MEL melanoma = tested on: M19-MEL melanoma
CAKI-1 renal = tested on: CAKI-1 renal
A549 NSCLC = tested on: A549 NSCLC
COLO 205 colon = tested on: COLO 205 colon
OVCAR-5 ovarian = tested on: OVCAR-5 ovarian
SN12C renal = tested on: SN12C renal
ACHN renal = tested on: ACHN renal
SF-268 CNS = tested on: SF-268 CNS
SR leukemia = tested on: SR leukemia
SK-MEL-28 melanoma = tested on: SK-MEL-28 melanoma
DLD-1 colon = tested on: DLD-1 colon
OVCAR-8 ovarian = tested on: OVCAR-8 ovarian
RXF 393 renal = tested on: RXF 393 renal
TK-10 renal = tested on: TK-10 renal
HOP-18 NSCLC = tested on: HOP-18 NSCLC

Measured: TGI

CCCCC(C(=O)CCC(=O)Nc1ccc(Cl)cc1)C(=O)C(C)C (stereo not given)
> 100 µM: DMS 114 small cell lung | MOLT-4 leukemia | RPMI-8226 leukemia | RXF-631 renal | U251 CNS | SK-OV-3 ovarian | LOX IMVI melanoma | EKVX NSCLC | NCI-H23 lung | HT29 colon | NCI-H522 lung | HCC-2998 colon | A498 renal | MALME-3M melanoma | NCI-H226 lung | SF-295 CNS | SK-MEL-2 melanoma | SNB-78 CNS | KM20L2 colon | LXFL 529 NSCLC | SK-MEL-5 melanoma | OVCAR-4 ovarian | NCI-H460 lung | M14 melanoma | IGROV1 ovarian | K-562 leukemia | OVCAR-3 ovarian | KM12 colon | HOP-62 NSCLC | HCT-15 colon | UO-31 renal | HL-60(TB) leukemia | CCRF-CEM leukemia | SNB-75 CNS | SW-620 colon | UACC-62 melanoma | 786-0 renal | SNB-19 CNS | HOP-92 NSCLC | DMS 273 small cell lung | UACC-257 melanoma | HCT-116 colon | SF-539 CNS | XF 498 CNS | M19-MEL melanoma | CAKI-1 renal | A549 NSCLC | COLO 205 colon | OVCAR-5 ovarian | SN12C renal | ACHN renal | SF-268 CNS | SR leukemia | SK-MEL-28 melanoma | DLD-1 colon | OVCAR-8 ovarian | RXF 393 renal | TK-10 renal

COc1c(C)c(O)c2c(c1C)OC(c1ccccc1)CC2=O (stereo not given)
83.1 µM: MALME-3M melanoma
74.1 µM: SK-MEL-2 melanoma
75.5 µM: SR leukemia
> 100 µM: DMS 114 small cell lung | HOP-18 NSCLC | MOLT-4 leukemia | RPMI-8226 leukemia | U251 CNS | SK-OV-3 ovarian | LOX IMVI melanoma | EKVX NSCLC | NCI-H23 lung | HT29 colon | NCI-H522 lung | HCC-2998 colon | A498 renal | NCI-H226 lung | SF-295 CNS | SNB-78 CNS | KM20L2 colon | LXFL 529 NSCLC | OVCAR-4 ovarian | NCI-H460 lung | M14 melanoma | IGROV1 ovarian | K-562 leukemia | OVCAR-3 ovarian | KM12 colon | HOP-62 NSCLC | HCT-15 colon | UO-31 renal | CCRF-CEM leukemia | SNB-75 CNS | SW-620 colon | UACC-62 melanoma | 786-0 renal | HOP-92 NSCLC | DMS 273 small cell lung | HCT-116 colon | SF-539 CNS | M19-MEL melanoma | CAKI-1 renal | A549 NSCLC | OVCAR-5 ovarian | SN12C renal | ACHN renal | SF-268 CNS | SK-MEL-28 melanoma | DLD-1 colon | OVCAR-8 ovarian | TK-10 renal
90.5 µM: HL-60(TB) leukemia
